Measured values: patent publication US20210052705A1, “METHOD OF DRUG […] FOR PTH, PTHrP AND RELATED PEPTIDES” (Radius Health, Inc., priority 2011, published 2021)

Assay: in vivo
Conditions: male, Sprague Dawley, rat; for bioavailability: % F; for AUC(0-t): AUC0-t; for half-life: T1/2
[1] = 9.8 ug, Concentrations of Peptide in Serum
[2] = 20 ug, Concentration of Peptide in Serum, Mean
[3] = 22 ug, Concentration of Peptide in Serum, Mean
[4] = 26.2 ug, Concentration of Peptide in Serum, Mean
[5] = 26.2 ug, Concentrations of Peptide in Serum
[6] = 27 ug, Concentration of Peptide in Serum, Mean
[7] = 27 ug, Concentrations of Peptide in Serum
[8] = 31 ug, Concentration of Peptide in Serum, Mean
[9] = 32 ug, Concentration of Peptide in Serum, Mean
[10] = 32 ug, Concentrations of Peptide in Serum
[11] = 45.6 ug, Concentration of Peptide in Serum, Mean
[12] = 54 ug, Concentrations of Peptide in Serum
[13] = 57.7 ug, Concentration of Peptide in Serum, Mean
[14] = 67.7 ug, Concentration of Peptide in Serum, Mean
[15] = 141.9 ug, Concentration of Peptide in Serum, Mean
[16] = 386.5 ug, Concentration of Peptide in Serum, Mean

bioavailability (9.8 ug): 49% | AUC(0-t) (9.8 ug): 5.72 ng·h/mL | Cmax (9.8 ug, Cmax): 12 ng/mL | level at 5 min [1]: 12 ng/mL | level at 0.25 h [1]: 9.65 ng/mL | level at 0.5 h [1]: 4.96 ng/mL | level at 0.75 h [1]: 2.07 ng/mL | level at 1 h [1]: 1.47 ng/mL | level at 1.5 h [1]: 0.62 ng/mL | level at 2 h [1]: 0.38 ng/mL | half-life (9.8 ug): 22 min | Tmax (9.8 ug): 5 min | bioavailability (20 ug): 47% | AUC(0-t) (20 ug): 9.6 ng·h/mL | Cmax (20 ug, Cmax): 11.9 ng/mL | level at 5 min [2]: 9.34 ng/mL | level at 0.25 h [2]: 11.9 ng/mL | level at 0.5 h [2]: 6.4 ng/mL | level at 0.75 h [2]: 7.12 ng/mL | level at 1.5 h [2]: 3.14 ng/mL | half-life (20 ug): 43 min | Tmax (20 ug): 15 min | bioavailability (20 ug/kg): 69% | AUC(0-t) (20 ug/kg): 2.77 ng·h/mL | Cmax (20 ug/kg, Cmax): 7.29 ng/mL | Cmax (20 ug/kg, Cmax (20 μg/kg Dose)): 7.29 ng/mL | half-life (20 ug/kg): 18 min | Tmax (20 ug/kg): 10 min | bioavailability (22 ug): 36% | AUC(0-t) (22 ug): 7.75 ng·h/mL | Cmax (22 ug, Cmax): 17.1 ng/mL | level at 5 min [3]: 17.1 ng/mL | level at 0.25 h [3]: 13.2 ng/mL | level at 0.5 h [3]: 6.46 ng/mL | level at 0.75 h [3]: 3.35 ng/mL | level at 1.5 h [3]: 0.8 ng/mL | half-life (22 ug): 19 min | Tmax (22 ug): 5 min | bioavailability (26.2 ug): 101% | AUC(0-t) (26.2 ug): 24.1 ng·h/mL | Cmax (26.2 ug, Cmax): 44 ng/mL | level at 5 min [4]: 34.6 ng/mL | level at 0.25 h [4]: 44 ng/mL | level at 0.5 h [4]: 17.3 ng/mL | level at 0.75 h [4]: 13.8 ng/mL | level at 1.5 h [4]: 2.22 ng/mL | level at 5 min [5]: 41.1 ng/mL | level at 10 min [5]: 26.7 ng/mL | level at 0.25 h [5]: 42.8 ng/mL | level at 0.5 h [5]: 17.4 ng/mL | level at 0.75 h [5]: 12.5 ng/mL | half-life (26.2 ug): 18 min | Tmax (26.2 ug): 15 min | AUC(0-t) (27 ug): 17 ng·h/mL | Cmax (27 ug, Cmax): 31 ng/mL | level at 5 min [6]: 32.6 ng/mL | level at 0.25 h [6]: 31 ng/mL | level at 0.5 h [6]: 18.1 ng/mL | level at 5 min (27 ug, Concentration of Peptide in Serum, individual rat): 28.2 ng/mL | level at 5 min [7]: 27.4 ng/mL | level at 0.25 h [7]: 29.7 ng/mL | level at 0.5 h [7]: 12.2 ng/mL | level at 0.75 h [7]: 9.1 ng/mL | half-life (27 ug): 20 min | Tmax (27 ug): 15 min | bioavailability (31 ug): 42% | AUC(0-t) (31 ug): 12.5 ng·h/mL | Cmax (31 ug, Cmax): 23.6 ng/mL | level at 5 min [8]: 20.3 ng/mL | level at 0.25 h [8]: 23.6 ng/mL | level at 0.5 h [8]: 12.5 ng/mL | level at 0.75 h [8]: 4.73 ng/mL | level at 1.5 h [8]: 1.04 ng/mL | half-life (31 ug): 17 min | Tmax (31 ug): 15 min | bioavailability (32 ug): 102% | AUC(0-t) (32 ug): 27.4 ng·h/mL | Cmax (32 ug, Cmax): 49.2 ng/mL | level at 5 min [9]: 45.2 ng/mL | level at 0.25 h [9]: 49.2 ng/mL | level at 0.5 h [9]: 18.9 ng/mL | level at 0.75 h [9]: 13.6 ng/mL | level at 1.5 h [9]: 5.03 ng/mL | level at 5 min [10]: 25.1 ng/mL | level at 10 min [10]: 34.4 ng/mL | level at 0.25 h [10]: 34 ng/mL | level at 0.5 h [10]: 17.8 ng/mL | level at 0.75 h [10]: 12.7 ng/mL | half-life (32 ug): 25 min | Tmax (32 ug): 15 min | bioavailability (45.6 ug): 108% | AUC(0-t) (45.6 ug): 48.7 ng·h/mL | Cmax (45.6 ug, Cmax): 88.2 ng/mL | level at 5 min [11]: 88.2 ng/mL | level at 0.25 h [11]: 76.1 ng/mL | level at 0.5 h [11]: 36.1 ng/mL | level at 0.75 h [11]: 29.3 ng/mL | level at 1.5 h [11]: 4.79 ng/mL | half-life (45.6 ug): 20 min | Tmax (45.6 ug): 5 min | bioavailability (54 ug): 37% | AUC(0-t) (54 ug): 23 ng·h/mL | Cmax (54 ug, Cmax): 49.8 ng/mL | level at 5 min [12]: 16.5 ng/mL | level at 0.25 h [12]: 49.8 ng/mL | level at 0.5 h [12]: 17.1 ng/mL | level at 0.75 h [12]: 9.37 ng/mL | level at 1 h [12]: 7.75 ng/mL | half-life (54 ug): 24 min | Tmax (54 ug): 15 min | bioavailability (57.7 ug): 82% | AUC(0-t) (57.7 ug): 41.8 ng·h/mL | Cmax (57.7 ug, Cmax): 60.8 ng/mL | level at 5 min [13]: 43.1 ng/mL | level at 0.25 h [13]: 60.8 ng/mL | level at 0.5 h [13]: 40.1 ng/mL | level at 0.75 h [13]: 28.1 ng/mL | level at 1.5 h [13]: 3.72 ng/mL | half-life (57.7 ug): 18 min | Tmax (57.7 ug): 15 min | bioavailability (67.7 ug): 74% | AUC(0-t) (67.7 ug): 48.2 ng·h/mL | Cmax (67.7 ug, Cmax): 82.7 ng/mL | level at 5 min [14]: 64.9 ng/mL | level at 0.25 h [14]: 82.7 ng/mL | level at 0.5 h [14]: 51.3 ng/mL | level at 0.75 h [14]: 19.7 ng/mL | level at 1.5 h [14]: 7.6 ng/mL | half-life (67.7 ug): 22 min | Tmax (67.7 ug): 15 min | AUC(0-t) (141.9 ug): 173 ng·h/mL | Cmax (141.9 ug, Cmax): 230 ng/mL | level at 5 min [15]: 186 ng/mL | level at 0.25 h [15]: 230 ng/mL | level at 0.5 h [15]: 219 ng/mL | level at 0.75 h [15]: 91.8 ng/mL | level at 1.5 h [15]: 23.7 ng/mL | half-life (141.9 ug): 21 min | Tmax (141.9 ug): 15 min | bioavailability (386.5 ug): 22% | AUC(0-t) (386.5 ug): 75.5 ng·h/mL | Cmax (386.5 ug, Cmax): 118 ng/mL | level at 5 min [16]: 97.5 ng/mL | level at 0.25 h [16]: 133 ng/mL | level at 0.5 h [16]: 75.4 ng/mL | level at 0.75 h [16]: 42.2 ng/mL | level at 1.5 h [16]: 7.53 ng/mL | half-life (386.5 ug): 18 min | Tmax (386.5 ug): 15 min
SMILES: CC[C@H](C)[C@H](NC(=O)[C@H](CO)NC(=O)[C@H](CCCCN)NC(=O)CNC(=O)[C@H](CCCCN)NC(=O)[C@H](CC(=O)O)NC(=O)[C@H](Cc1cnc[nH]1)NC(=O)[C@H](CC(C)C)NC(=O)[C@H](CC(C)C)NC(=O)[C@H](CCC(N)=O)NC(=O)[C@H](Cc1cnc[nH]1)NC(=O)[C@H](CCC(=O)O)NC(=O)[C@H](CO)NC(=O)[C@@H](NC(=O)[C@H](C)N)C(C)C)C(=O)N[C@@H](CCC(N)=O)C(=O)N[C@@H](CC(=O)O)C(=O)N[C@@H](CC(C)C)C(=O)N[C@@H](CCCNC(=N)N)C(=O)N[C@@H](CCCNC(=N)N)C(=O)N[C@@H](CCCNC(=N)N)C(=O)N[C@@H](CCC(=O)O)C(=O)N[C@@H](CC(C)C)C(=O)N[C@@H](CC(C)C)C(=O)N[C@@H](CCC(=O)O)C(=O)N[C@@H](CCCCN)C(=O)N[C@@H](CC(C)C)C(=O)N[C@@H](CC(C)C)C(=O)NC(C)(C)C(=O)N[C@@H](CCCCN)C(=O)N[C@@H](CC(C)C)C(=O)N[C@@H](Cc1cnc[nH]1)C(=O)N[C@H](C(=O)N[C@@H](C)C(N)=O)[C@@H](C)O [Peptide]
